We go through 4 compounds from ChEMBL document CHEMBL1250451, “Mechanistic insights into a Ca2+-dependent family of alpha-mannosidases in a human gut symbiont” (Nat Chem Biol, 2010).

What all share (format): protein assay
In experiment [1] the target is T1, Alpha-1,2-mannosidase (BT_2629) (Bacteroides thetaiotaomicron) (UniProt Q8A4H0).
T1 sequence (whole entry): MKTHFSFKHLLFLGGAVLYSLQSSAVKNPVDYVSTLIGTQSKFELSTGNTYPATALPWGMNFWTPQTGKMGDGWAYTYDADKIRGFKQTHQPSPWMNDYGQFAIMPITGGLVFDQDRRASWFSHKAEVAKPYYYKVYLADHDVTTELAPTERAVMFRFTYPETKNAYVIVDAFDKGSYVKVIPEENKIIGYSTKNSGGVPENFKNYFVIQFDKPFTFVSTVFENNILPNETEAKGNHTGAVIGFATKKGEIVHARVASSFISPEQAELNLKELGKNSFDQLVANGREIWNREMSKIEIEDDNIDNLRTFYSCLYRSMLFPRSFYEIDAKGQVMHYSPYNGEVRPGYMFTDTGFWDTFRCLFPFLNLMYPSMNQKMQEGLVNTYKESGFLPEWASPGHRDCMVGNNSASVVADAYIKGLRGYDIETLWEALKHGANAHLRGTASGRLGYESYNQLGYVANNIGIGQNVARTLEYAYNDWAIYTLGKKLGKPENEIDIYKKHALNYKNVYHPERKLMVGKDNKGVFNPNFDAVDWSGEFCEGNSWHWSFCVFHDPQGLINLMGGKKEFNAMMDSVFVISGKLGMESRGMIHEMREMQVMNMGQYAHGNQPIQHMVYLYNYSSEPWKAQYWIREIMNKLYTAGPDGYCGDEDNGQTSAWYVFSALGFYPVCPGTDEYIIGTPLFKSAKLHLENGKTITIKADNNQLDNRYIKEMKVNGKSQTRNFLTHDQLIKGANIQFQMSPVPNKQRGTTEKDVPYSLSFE
Put plainly: Activity of Bacteroides thetaiotaomicron GH92 alpha-mannosidase GH92 alpha-mannosidase 2629 assessed as mannose release at 1 mM after 16 hrs by HPLC relative to untreated control after 16 hrs by HPLC.

In experiment [2] the target is T2, Alpha-1,2-mannosidase (BT_3965) (Bacteroides thetaiotaomicron) (UniProt Q8A0Q6).
T2 sequence (whole entry): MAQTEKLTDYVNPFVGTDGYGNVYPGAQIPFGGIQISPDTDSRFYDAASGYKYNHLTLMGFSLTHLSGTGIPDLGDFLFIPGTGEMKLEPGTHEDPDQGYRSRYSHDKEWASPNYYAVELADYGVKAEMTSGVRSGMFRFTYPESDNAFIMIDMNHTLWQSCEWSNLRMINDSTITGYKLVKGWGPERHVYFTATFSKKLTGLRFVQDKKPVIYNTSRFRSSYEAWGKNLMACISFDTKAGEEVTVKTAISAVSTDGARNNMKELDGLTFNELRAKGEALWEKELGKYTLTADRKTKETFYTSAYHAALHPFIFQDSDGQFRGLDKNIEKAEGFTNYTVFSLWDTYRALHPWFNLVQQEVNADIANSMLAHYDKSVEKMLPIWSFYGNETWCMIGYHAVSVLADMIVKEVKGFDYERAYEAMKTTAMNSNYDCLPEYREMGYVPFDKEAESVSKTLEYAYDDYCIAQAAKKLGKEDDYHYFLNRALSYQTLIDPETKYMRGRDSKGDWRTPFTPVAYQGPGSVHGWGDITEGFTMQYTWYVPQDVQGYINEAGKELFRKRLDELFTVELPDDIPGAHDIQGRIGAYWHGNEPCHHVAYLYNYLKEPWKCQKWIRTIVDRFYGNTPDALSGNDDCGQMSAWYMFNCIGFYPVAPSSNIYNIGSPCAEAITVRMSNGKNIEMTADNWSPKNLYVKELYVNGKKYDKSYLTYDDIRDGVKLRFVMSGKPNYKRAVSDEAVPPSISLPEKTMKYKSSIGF
Put plainly: Activity of Bacteroides thetaiotaomicron GH92 alpha-mannosidase GH92 alpha-mannosidase 3965 assessed as mannose release at 1 mM after 16 hrs by HPLC relative to untreated control after 16 hrs by HPLC.

Experiment [3] deals with T3, Alpha-1,2-mannosidase, putative (BT_3773) (Bacteroides thetaiotaomicron) (UniProt Q8A193).
T3 sequence (whole entry): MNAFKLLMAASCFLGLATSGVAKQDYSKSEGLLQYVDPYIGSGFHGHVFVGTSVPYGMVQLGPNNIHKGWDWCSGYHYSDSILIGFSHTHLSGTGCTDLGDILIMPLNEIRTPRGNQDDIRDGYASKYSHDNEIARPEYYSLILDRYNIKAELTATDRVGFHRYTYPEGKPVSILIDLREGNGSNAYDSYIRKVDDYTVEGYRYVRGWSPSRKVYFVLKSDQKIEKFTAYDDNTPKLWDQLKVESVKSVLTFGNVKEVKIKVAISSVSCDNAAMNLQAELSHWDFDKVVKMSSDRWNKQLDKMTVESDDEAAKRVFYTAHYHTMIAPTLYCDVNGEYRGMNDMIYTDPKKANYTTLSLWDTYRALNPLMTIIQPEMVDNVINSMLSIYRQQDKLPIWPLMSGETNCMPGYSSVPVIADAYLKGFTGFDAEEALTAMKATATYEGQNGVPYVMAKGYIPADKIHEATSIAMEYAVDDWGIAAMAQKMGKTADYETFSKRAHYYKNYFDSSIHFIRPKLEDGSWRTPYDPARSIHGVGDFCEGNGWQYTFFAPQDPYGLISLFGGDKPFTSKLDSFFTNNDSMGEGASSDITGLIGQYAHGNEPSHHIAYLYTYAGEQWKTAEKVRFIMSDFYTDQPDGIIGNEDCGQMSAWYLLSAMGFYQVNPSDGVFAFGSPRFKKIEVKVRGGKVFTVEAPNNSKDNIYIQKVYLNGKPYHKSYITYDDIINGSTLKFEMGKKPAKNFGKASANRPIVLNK
Put plainly: Activity of Bacteroides thetaiotaomicron GH92 alpha-mannosidase GH92 alpha-mannosidase 3773 assessed as mannose release at 1 mM after 16 hrs by HPLC relative to untreated control after 16 hrs by HPLC.

Active and inactive are the calls of the source. The calls are words filed in the database; no cut-off is given here.

With `OC[C@H]1O[C@H](O[C@@H]2[C@H](O)[C@@H](O)O[C@H](CO)[C@H]2O)[C@@H](O)[C@@H](O)[C@@H]1O`, in experiment [1], the outcome was inactive. Moreover, in experiment [2], the Activity amounted to 0.09%.
On to `OC[C@H]1O[C@H](O[C@H]2[C@H](O)[C@H](O)[C@@H](O)O[C@@H]2CO)[C@@H](O)[C@@H](O)[C@@H]1O`, for which the outcome in experiment [1] was inactive. Moreover, the Activity in experiment [3] was found to be 4.7%; in experiment [2] it was 100%.
For `OC[C@H]1O[C@H](O[C@H]2[C@@H](O)[C@H](O)[C@@H](CO)O[C@@H]2O)[C@@H](O)[C@@H](O)[C@@H]1O` the same measures were “inactive”, 0.91% and 0.27%.
`OC[C@H]1O[C@H](OC[C@H]2O[C@H](O)[C@@H](O)[C@@H](O)[C@@H]2O)[C@@H](O)[C@@H](O)[C@@H]1O`: the outcome in experiment [1] was inactive. In addition, the Activity in experiment [3] was 0.0088%; in experiment [2], 0.64%.
